Patent publication US9018176B2, “Inducers of hematopoiesis and fetal globin production for treatment of cytopenias and hemoglobin disorders” (priority 2010, dated 2015)
“And” between values parts separate entries of the source, which are not always exact repeats. Identical values can stand only once. Like-named read-outs stand apart in the source and are kept apart here.

What was measured:
red blood cells = test: Adult human subject with alpha thalassemia trait given desloratidine; type: in vivo; conditions: 5 mg/day once per day, within 4 weeks
Protocol: Desloratidine was administered to an adult human subject with alpha thalassemia trait at a standard allergy treatment dose of 5 mg/day total, once per day. […] This is an unexpected and rapid rise in red blood cell levels in a mildly anemic subject. Accordingly, the inventors have discovered that desloratidine can be used to increase red blood cells in a subject at a dose of […] in order to increase the red blood levels in a subject in need of treatment. In some embodiments, the subject who is administered desloratidine is selected to have a low red blood count, or is anaemic or has a cytopenia as disclosed herein.

γ-globin mRNA [1] = test: γ-globin mRNA in cultured primary human erythroid progenitors (BFU-e), real-time PCR; type: cell-based
Protocol: Erythroid progenitors were cultured from cord blood CD34+ cells. […] Each compound was tested in three different cultures. […] On day 14, RNA was extracted from cultured erythroid cells, and relative quantification PCR was performed. Briefly, cDNA was generated from equal amounts of total RNA extracted using The PerfectPure RNA Purification Kit (5 Prime Inc Gaithersburg, Md.). Real-time PCR was performed using an ABI 7500 Real-Time PCR system (Applied Biosystems, Foster City, Calif.). Levels of globin mRNA were calculated by the ΔΔCt method. […] GAPDH levels were used for standardization. Western blotting Nuclear extract of K562 cells and 14-day-old BFU-e were analyzed by electrophoresis using 5-24% gradient SDS-polyacrylamide mini-gels (BIORAD Laboratories. Hercules Calif.). Proteins in the gels were transferred to Immobilon-P membranes. Blots were then incubated with BCL11A polyclonal (Novus Biologicals, Littleton Co) or mouse monoclonal (Santa Cruz Biotechnology, Santa Cruz Calif.) antibodies, after washing blots were incubated with anti-rabbit IgG-horseradish peroxidase secondary antibody (ECL, Little Chalfont Buckinghamshire UK). BCL11A bands were detected on the X-ray film using Western Lightning Reagents (Perking Elmer Inc, Waltham, Mass.).

γ-globin mRNA [2] = test: γ-globin mRNA gene expression in K562 cells; type: cell-based; conditions: FIGS. 4A and 4B, K562 cells; Resveratrol 30 μM, desloratadine 50 μM, NSC 50 μM, Benserazine 5 μM
CB BFU-E cells = test: CB BFU-E cell proliferation (cells/colony); conditions: FIG. 8
Protocol: Fetal globin-inducing activity in human erythroid progenitors was assessed. Human erythroid progenitors were cultured from peripheral blood samples, exposed to the test compounds at varying concentrations and for varying durations and analyzed for globin chain mRNA ratios. Erythroid progenitors were cultured from cord blood CD34+ cells. Briefly, CD34+ cells in the human cord blood were separated using a Ficoll-paque density gradient. CD34+ cells were cultured in H4230 medium containing 2 mM L-glutamine, 1% Methylcellulose in Iscove's Medium, 30% Fetal Bovine Serum, 1% Bovine Serum Albumin and 10^-4 M β-mercaptoethanol. Methylcellulose H4230 medium was supplemented with EPO (0.5 U/ml) and IL-3 (20 ng/ml) to support BFU-e growth. Cells were cultured in […] mini-dishes and incubated in a humidified atmosphere containing 5% CO2, at 37° C. Different concentrations of the test compounds were added at the time the cultures were established. Each compound was tested in three different cultures. BFU-e colonies grown in mini-dishes were counted on day 14 and harvested for mRNA analysis.

γ-globin [3] = test: Fetal globin (γ-globin mRNA, HbF) induction in phlebotomized anemic baboons; type: in vivo, baboons (Papio hamadryas anubis)
γ-globin mRNA [4] = test: γ-globin mRNA in cultured primary human erythroid progenitors (BFU-e), real-time PCR; type: cell-based; conditions: for fetal globin mRNA, Mean: vs untreated control cultures from the same subject
[5] = tested on: red blood cell production; test: Total hemoglobin and hematocrit in phlebotomized anemic baboons; type: in vivo, baboons (Papio hamadryas anubis); conditions: FIG. 12B; MS-275 3 mg/m^2 for 4 days and 2 weeks vs ST20 2 and 4 days; desloratadine 0.6 mg/kg for two days
Protocol: (§1) Studies to evaluate pharmacokinetic properties and γ-globin induction were performed in juvenile baboons (Papio hamadryas anubis). Briefly, animals were chronically phlebotomized on a daily basis to achieve stable anemia, maintaining a total hemoglobin level of 7.0 to 7.5 g/dl. Candidate compounds were administered intravenously or orally once daily in single doses for pharmacokinetic studies, or once daily in single doses, 4-5 days per week for 4-5 weeks, for pharmacodynamic studies. […] Levels of γ-globin mRNA expression and globin chain synthesis were assessed in baboons before and during treatment with test compounds. A washout period between administrations of different compounds in the same baboon was provided.
(§2) Chronically catheterized baboons were phlebotomized daily to create chronic anemia with total hemoglobin levels (Hb) between 7.0 to 7.5 g/dl which simulates the expanded erythropoiesis and anemia in sickle cell disease and beta thalassemia. Blood counts were drawn and total Hb (hemoglobin) and reticulocytes were analyzed on a hemavet analyzer. Fetal globin mRNA was analyzed by RT-PCR and proportions for f-cells were analyzed by flow cytometry. […] Desloratidine (0.6 mg/kg) was administered for 4 days following a washout period. Blood counts were obtained at least 3 days/week.
Baboon 1509 (weight 10.9 kg) was phlebotomized to induce anemia and marrow expansion, similar to the hemoglobin disorders.

γ-globin [6] = test: Fetal globin (γ-globin mRNA, HbF) induction in phlebotomized anemic baboons; type: in vivo, baboons (Papio hamadryas anubis); conditions: for increase of fetal hemoglobin (HbF) protein levels above levels produced by erythroid stress alone: Desloratidine 0.6 mg/kg orally
Protocol: as §1, §2
Baboons HL-25 and HD50 were phlebotomized daily to create anemia with erythroid expansion. When stably anemic, Desloratidine (0.6 mg/kg) was administered orally, fetal hemoglobin (HbF) protein levels were assayed.

[7] = tested on: γ-globin reporter cell line; test: Cytotoxicity counter screen run simultaneously with the HTS; type: cell-based, human; conditions: simultaneous counter screen of the HTS
γ-globin gene promoter = test: High throughput screen: LCR-HS2 γ-globin gene promoter EGFP reporter cell assay; type: cell-based, human; conditions: pilot screen plate, fold increase relative to NC (negative control)
Excerpt: FIG. 1B is a schematic illustration showing an illustration of the method of the high throughput screening assay (HTS) with the cell construct comprising a locus control region (LCR) linked to the y-globin gene promoter and enhanced GFP (EGFP). A compound which activates γ-globin promoter will induce gene expression of EGFP which can be detected by a suitable detector.
A human cell-based assay which was previously used in low throughput assays, utilizing a 1.4-kilobase (kb) KpnI-BglII fragment of the HS2 of the locus control region (LCR) linked to the γ-globin gene promoter and the enhanced green fluorescent protein (EGFP) reporter gene, was adapted for high throughput screening and employed as the primary screen (FIG. 1A). Cytotoxic activity was assayed in a simultaneous counter screen. […] Several hits were immediately eliminated from further development as potential hemoglobinopathy therapeutics because of cytotoxicity (e.g., Idarubicin) or undesirable off-target effects, but nonetheless validated the HTS itself and were validated in secondary confirmatory assays as highly-potent HbF-inducers. […]

γ-globin [8] = conditions: in humans, about 3-fold less than in baboons; cited from earlier work
[9] = Desloratadine 3 uM, Cord Blood progenitors
[10] = Desloratadine 3 uM, Hemoglobin disorder progenitors

Compound: Clc1ccc2c(c1)CCc1cccnc1C2=C1CCNCC1 [Desloratadine, 8-Chloro-6,11-dihydro-11-(4-piperidinylidene)-5H-benzo[5,6]cyclohepta[1,2-b]pyridine]
- Hemoglobin after treatment (red blood cells; increased from 10): 11.5 g/gl
- hematocrit after treatment (red blood cells; increased from 30%): 35%
- % induction of γ-globin mRNA gene expression (γ-globin mRNA [1]; FIG. 4C, HFU-E (burst-forming units-erythroid) cells, Resveratrol 30 μM, desloratadine 50 μM, NSC 50 μM, Benserazine 5 μM): most significant % increase
- effect in increasing % of γ-globin mRNA expression (γ-globin mRNA [1]; FIG. 6, BFU-e cells, Desloratadine 3 μM, Benserazide 3 μM, NSC5397 0.6 μM): greatest effect
- % induction of γ-globin mRNA gene expression (γ-globin mRNA [2]): most significant % increase
- number of blood cells per colony (CB BFU-E cells): increase the number of blood cells per colony
- Increase in γ-globin mRNA above baseline (γ-globin [3]; Baboon HD50, Desloratadine oral 0.55 mg/kg): 350%
- Increase in γ-globin mRNA above baseline (γ-globin [3]; Baboon HD50, Desloratadine oral 0.55 mg/kg, listed as Desloratidine): 350%
- Increase in γ-globin mRNA above baseline (γ-globin [3]; Baboon HL25, Desloratadine oral 0.55 mg/kg): 386%
- Increase in γ-globin mRNA above baseline (γ-globin [3]; Baboon HL25, Desloratadine oral 0.55 mg/kg, listed as Desloratidine): 386%
- responses (cultures with induced fetal globin mRNA) (γ-globin mRNA [4]; [9]): 4/4 responses
- fetal globin mRNA, Mean (γ-globin mRNA [4]; [9]): 323 % of control
- responses (cultures with induced fetal globin mRNA) (γ-globin mRNA [4]; [10]): 3/3 responses
- fetal globin mRNA, single subjects (γ-globin mRNA [4]; Desloratadine 3 uM, Hemoglobin disorder progenitors (subjects)): 121 % of control and 123 % of control and 274.2 % of control
- fetal globin mRNA, Mean (γ-globin mRNA [4]; [10]): 175 % of control
- responses (cultures with induced fetal globin mRNA) (γ-globin mRNA [4]; Desloratadine 3 uM, Normal progenitors): 1 response
- fetal globin mRNA, Mean (γ-globin mRNA [4]; Desloratadine 3 uM, Normal progenitors (ABM), 1 response): 1098 % of control
- γ-globin mRNA induction (γ-globin mRNA [4]; cultured primary human erythroid progenitors, concentrations pharmacologically achievable in humans): up to 6 fold
- blood total hemoglobin (Hb) levels compared with positive control ST20 (150 mg/kg) [5]: significantly more effective
- increase of fetal hemoglobin (HbF) protein levels above levels produced by erythroid stress alone (γ-globin [6]; Baboon HD50): 170%
- increase of fetal hemoglobin (HbF) protein levels above levels produced by erythroid stress alone (γ-globin [6]; Baboon HL25): 193%
- fetal globin mRNA (γ-globin [6]; Benserazide 1 or 3 mg/kg in baboon 1509, MS-275 and desloratidine): induced
- γ-globin mRNA expression in blood compared with positive control ST20 (150 mg/kg) (γ-globin [6]; FIG. 12A, MS-275 3 mg/m^2 for 4 days and 2 weeks, desloratadine 0.6 mg/kg for two days vs ST20 after 2 or 4 days): more effective
- time of treatment to detected fetal globin induction and increased HbF (γ-globin [6]; desloratidine, same baboon as ST-20): ≤ 4 days

Compound: CC(=O)[C@]1(O)Cc2c(O)c3c(c(O)c2[C@@H](O[C@H]2C[C@H](N)[C@H](O)[C@H](C)O2)C1)C(=O)c1ccccc1C3=O [Idarubicin, idarubicin]
- cytotoxicity (reason for elimination from further development) [7]: cytotoxicity
- fold induction of the γ-globin promoter (γ-globin gene promoter): 8 fold

Compound: CCC(C)(C)C(=O)[O-].[Na+] [ST20, sodium 2,2-dimethylbutyrate]
- dose required to increase HbF expression (γ-globin [8]): 20 to 50 mg/kg
- Increase in γ-globin mRNA above baseline (γ-globin [6]; Baboon HD50, ST20 oral 150 mg/kg): 310%
- time of treatment after which fetal globin (HbF) mRNA increased (γ-globin [6]; ST-20, same baboon as desloratidine): 2 weeks
- dose required to increase HbF expression (γ-globin [6]; in baboons): 50 to 150 mg/kg
